From US6803372B2, “Spiro compounds” (Banyu Pharmaceutical Co., Ltd., priority 1999, dated 2004)

Test system: not given
Assay: not given
Details: not given
Molecule `O=C1NC2(CCN(C(=O)Nc3cnc(-c4ccccc4)cn3)CC2)c2ccccc21` [Example 2, 3-oxo-N-(5-phenyl-2-pyrazinyl)spiro[isoindoline-1,4′-piperidine]-1′-carboxamide] has a melting point of 286 to 287 °C. In the case of `Cc1ccc2ccc(NC(=O)N3CCC4(CC3)NC(=O)c3ccccc34)nc2c1` [Example 3, N-(7-methyl-2-quinolyl)-3-oxospiro[isoindoline-1,4′-piperidine]-1′-carboxamide], the melting point is reported as 194 to 196 °C. `O=C1Cc2ccccc2C2(CCN(C(=O)Nc3cnc(-c4ccccc4)cn3)CC2)N1` [Example 6, 3,4-Dihydro-3-oxo-N-(5-phenyl-2-pyrazinyl)spiro[isoquinoline-1(2H),4′-piperidine]-1′-carboxamide] showed a melting point of 237 to 239 °C. For `Cc1ccc2ccc(NC(=O)N3CCC4(CC3)NC(=O)Cc3ccccc34)nc2c1` [Example 7, 3,4-Dihydro-N-(7-methyl-2-quinolyl)-3-oxospiro[isoquinoline-1(2H),4′-piperidine]-1′-carboxamide], the melting point was 216 to 218 °C. With `CC(=O)c1ccc(NC(=O)N2CCC3(CC2)NC(=O)Cc2ccccc23)cc1` [Example 8, N-(4-acetylphenyl)-3,4-dihydro-3-oxospiro[isoquinoline-1(2H),4′-piperidine]-1′-carboxamide] the melting point was over 300 °C. `O=C1Cc2ccccc2C2(CCN(C(=O)Nc3ccc4c(c3)CCCC4=O)CC2)N1` [Example 10, 3,4-Dihydro-3-oxo-N-(5-oxo-5,6,7,8-tetrahydro-2-naphthyl)spiro[isoquinoline-1(2H),4′-piperidine]-1′-carboxamide] showed a melting point of 220.5 to 222.2 °C. With `CC(C)=Cc1cnc(NC(=O)N2CCC3(CC2)NC(=O)Cc2ccccc23)cn1` [Example 11, 3,4-Dihydro-N-[5-(2-methyl-1-propenyl)-2-pyrazinyl]-3-oxospiro[isoquinoline-1(2H),4′-piperidine]-1′-carboxamide] the melting point was 232.9 to 236.5 °C. In the case of `O=C1Cc2ccccc2C2(CCN(C(=O)Nc3cc(-c4ccccc4)no3)CC2)N1` [Example 12, 3,4-Dihydro-3-oxo-N-(3-phenyl-5-isoxazolyl)spiro[isoquinoline-1(2H),4′-piperidine]-1′-carboxamide], the melting point is reported as 239 to 241 °C. In the case of `O=C1Cc2ccccc2C2(CCN(C(=O)Nc3cn(-c4cccc5ccoc45)cn3)CC2)N1` [Example 13, N-[1-(7-benzo[b]furanyl)-4-imidazolyl]-3,4-dihydro-3-oxospiro[isoquinoline-1(2H),4′-piperidine]-1′-carboxamide], the melting point is reported as 192 to 194 °C. `O=C1Cc2ccccc2C2(CCN(C(=O)Nc3cn(-c4cccc(OC(F)F)c4)cn3)CC2)N1` [Example 14, N-[1-(3-difluoromethoxyphenyl)-4-imidazolyl]-3,4-dihydro-3-oxospiro[isoquinoline-1(2H),4′-piperidine]-1′-carboxamide] gave a melting point of 161 to 163 °C. In the case of `O=C1Cc2ccccc2C2(CCN(C(=O)Nc3ccc(C(=O)c4ccccn4)cc3)CC2)N1` [Example 15, 3,4-Dihydro-3-oxo-N-[4-(2-pyridylcarbonyl)phenyl]spiro[isoquinoline-1(2H),4′-piperidine]-1′-carboxamide], the melting point is reported as 162 to 164 °C. With `O=C1Cc2ccccc2C2(CCN(C(=O)Nc3ccc(Cl)c(Cl)c3)CC2)N1` [Example 16, N-(3,4-dichlorophenyl)-3,4-dihydro-3-oxospiro[isoquinoline-1(2H),4′-piperidine]-1′-carboxamide] the melting point was over 300 °C. `O=C1Cc2ccccc2C2(CCN(C(=O)Nc3cn(-c4cccc(Cl)c4)cn3)CC2)N1` [Example 17, N-[1-(3-chlorophenyl)-4-imidazolyl]-3,4-dihydro-3-oxospiro[isoquinoline-1(2H),4′-piperidine]-1′-carboxamide] gave a melting point of 255 to 258 °C. Molecule `O=C1Cc2ccccc2C2(CCN(C(=O)Nc3ncc(-c4ccccc4)s3)CC2)N1` [Example 18, 3,4-Dihydro-3-oxo-N-(5-phenyl-2-thiazolyl)spiro[isoquinoline-1(2H),4′-piperidine]-1′-carboxamide] has a melting point of over 300 °C. With `O=C1Cc2ccccc2C2(CCN(C(=O)Nc3cnc(-c4ccccn4)cn3)CC2)N1` [Example 19, 3,4-Dihydro-3-oxo-N-[5-(2-pyridyl)-2-pyrazinyl]spiro[isoquinoline-1(2H),4′-piperidine]-1′-carboxamide] the melting point was 223 to 225 °C. Molecule `Cc1cccc2sc(NC(=O)N3CCC4(CC3)NC(=O)Cc3ccccc34)nc12` [Example 20, 3,4-Dihydro-N-(4-methyl-2-benzothiazolyl)-3-oxospiro[isoquinoline-1(2H),4′-piperidine]-1′-carboxamide] has a melting point of 144 to 146 °C. Molecule `O=C1Cc2ccccc2C2(CCN(C(=O)Nc3nc4cc(Cl)ccc4o3)CC2)N1` [Example 21, N-(5-chloro-2-benzoxazolyl)-3,4-dihydro-3-oxospiro[isoquinoline-1(2H),4′-piperidine]-1′-carboxamide] has a melting point of 256 to 258 °C. Molecule `Cc1ccc2ccc(NC(=O)N3CCC4(CC3)OC(=O)c3ccccc34)nc2c1` [Example 24, N-(7-methyl-2-quinolyl)-3-oxospiro[isobenzofuran-1(3H),4′-piperidine]-1′-carboxamide] has a melting point of 178 to 180 °C. For `O=C1OC2(CCN(C(=O)Nc3cn(-c4cnc5ccccc5c4)cn3)CC2)c2ccccc21` [Example 28, 3-Oxo-N-[1-(3-quinolyl)-4-imidazolyl]spiro[isobenzofuran-1(3H),4′-piperidine]-1′-carboxamide], the melting point was 251 to 254 °C. In the case of `O=C1OC2(CCN(C(=O)Nc3cc(-c4ccc(Cl)cc4)[nH]n3)CC2)c2ccccc21` [Example 30, N-[5-(4-chlorophenyl)-3-pyrazolyl]-3-oxospiro[isobenzofuran-1(3H),4′-piperidine]-1′-carboxamide], the melting point is reported as 255 to 258 °C. Work on `O=C1OC2(CCN(C(=O)Nc3cc(-c4cnc5ccccc5c4)[nH]n3)CC2)c2ccccc21` [Example 31, 3-oxo-N-[5-(3-quinolyl)-3-pyrazolyl]spiro[isobenzofuran-1(3H),4′-piperidine]-1′-carboxamide] yielded a melting point of 253 to 257 °C. `O=C1OC2(CCN(C(=O)Nc3ccc4ncc(OC(F)F)cc4n3)CC2)c2ccccc21` [Example 35, N-(7-difluoromethoxypyrido[3,2-b]pyridin-2-yl)-3-oxospiro[isobenzofuran-1(3H),4′-piperidine]-1′-carboxamide] showed a melting point of 193 °C. `O=C1OC2(CCN(C(=O)Nc3cn(-c4cccc(CCO)c4)cn3)CC2)c2ccccc21` [Example 37, N-{1-[3-(2-hydroxyethyl)phenyl]-4-imidazolyl}-3-oxospiro[isobenzofuran-1(3H),4′-piperidine]-1′-carboxamide] showed a melting point of 99 to 100 °C. In the case of `CCn1ccnc1-c1ccc(NC(=O)N2CCC3(CC2)OC(=O)c2ccccc23)cc1` [Example 38, N-[4-(1-ethyl-2-imidazolyl)phenyl]-3-oxospiro[isobenzofuran-1(3H),4′-piperidine]-1′-carboxamide], the melting point is reported as 221 to 223 °C. `COc1cccc(-n2cnc(NC(=O)N3CCC4(CC3)OC(=O)c3ccccc34)c2)c1` [Example 39, N-[1-(3-methoxyphenyl)-4-imidazolyl]-3-oxospiro[isobenzofuran-1(3H),4′-piperidine]-1′-carboxamide] showed a melting point of 208 to 210 °C. In the case of `O=C1Cc2ccccc2C2(CCN(C(=O)Nc3cnc(C(=O)c4ccccc4)cn3)CC2)O1` [Example 46, N-(5-benzoyl-2-pyrazinyl)-3,4-dihydro-3-oxospiro[1H-2-benzopyran-1,4′-piperidine]-1′-carboxamide], the melting point is reported as 128 to 131 °C.

Target: T1, human NPY Y5 receptor (Homo sapiens, UniProt Q15761)
T1 construct: expressed in transfected cells; host or cells: COS-7, CHO and LM(tk-)
T1 sequence (Q15761 1-445): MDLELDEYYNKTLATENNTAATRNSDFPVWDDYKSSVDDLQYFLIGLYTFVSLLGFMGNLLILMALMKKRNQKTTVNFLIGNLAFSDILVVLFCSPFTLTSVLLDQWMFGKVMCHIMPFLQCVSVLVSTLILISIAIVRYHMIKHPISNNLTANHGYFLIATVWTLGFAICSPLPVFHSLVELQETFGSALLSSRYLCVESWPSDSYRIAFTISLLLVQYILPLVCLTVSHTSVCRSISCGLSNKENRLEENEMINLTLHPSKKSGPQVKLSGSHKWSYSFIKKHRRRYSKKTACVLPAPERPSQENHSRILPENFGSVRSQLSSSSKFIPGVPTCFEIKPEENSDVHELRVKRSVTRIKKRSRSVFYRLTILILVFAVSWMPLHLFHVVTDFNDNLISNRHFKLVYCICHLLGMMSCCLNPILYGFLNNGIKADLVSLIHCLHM
Assay: NPY binding inhibition test (Pharmacological Test 1)
Details: [125I]peptideYY, membrane sample from cells expressing NPY Y5 receptor, 25° C., 2 hours; read-out: IC50 of the test compound against specific peptideYY binding
Text: Pharmacological Test 1 (NPY Binding Inhibition Test)
cDNA sequence encoding human NPY Y5 receptor [International patent publication number WO96/16542] was cloned into expression vectors pcDNA3, pRc/RSV (made by Invitrogen Inc.) and pCI-neo (made by Promega Inc.). This obtained expression vectors were transfected to host cells COS-7, CHO and LM(tk-) (American Type Culture Collection) by cationic lipid method [Proceedings of the National Academy of Sciences of the United States of America, 84: 7413(1987)] to give NPY Y5 receptor expression cells.
A membrane sample prepared from the cells which expressed NPY Y5 receptor was incubated together with a test compound and [^125I]peptideYY (NEN) (20,000 cpm) in an assay buffer (25 mM Tris buffer, pH7.4, containing 10 mM magnesium chloride, 1 mM phenylmethylsulfonyl fluoride, 0.1% bacitracin and 0.5% bovine serum albumin) at 25° C. for 2 hours, then filtered through a glass filter GF/C and washed with 5 mM Tris buffer (pH7.4) containing 0.3% BSA. The radioactivity of the cake on the glass filter was measured. Nonspecific binding was measured in the presence of 1 μM peptideYY and a 50% Inhibitory Concentration (IC50) of the test compound against specific peptideYY binding was determined [Endocrinology, 131: 2090(1992)].
Molecule `O=C(c1ccccc1)c1ccc(NC(=O)N2CCC3(CC2)NC(=O)c2ccccc23)cc1` [Example 1, N-(4-benzoylphenyl)-3-oxospiro[isoindoline-1,4′-piperidine]-1′-carboxamide] has an IC50 of 1.2 nM. Molecule `O=C1Cc2ccccc2C2(CCN(C(=O)Nc3ccc(C(=O)c4ccccc4)cc3)CC2)O1` [Example 44, N-(4-benzoylphenyl)-3,4-dihydro-3-oxospiro[1H-2-benzopyran-1,4′-piperidine]-1′-carboxamide] has an IC50 of 1.5 nM. Molecule `O=C1OC2(CCC(C(=O)Nc3ncc(-c4ccccc4)cn3)CC2)c2ccccc21` (stereo not drawn) [Example 50, Trans-3′-oxo-N-(5-phenyl-2-pyrimidinyl)spiro[cyclohexane-1,1′(3′H)-isobenzofuran]-4-carboxamide] has an IC50 of 0.48 nM.
